Among the data in PMC11295495 (Neuropharmacology, 2023) are IC50 values, retold here.

For orientation: IC50 means the concentration that inhibits the measured activity by half. Low readings indicate greater potency in that assay, high ones weaker potency in that assay.

Where two headings read alike, the source gives them in different places.

In assay [1] the target is T1, a9a10 nAChR (Homo sapiens, UniProt Q9GZZ6+Q9UGM1). Nature of the assay: two-electrode voltage-clamp in Xenopus oocytes, inhibition of […] ACh responses. The class given is cell-based.
T1 sequence (Q9UGM1 23-479): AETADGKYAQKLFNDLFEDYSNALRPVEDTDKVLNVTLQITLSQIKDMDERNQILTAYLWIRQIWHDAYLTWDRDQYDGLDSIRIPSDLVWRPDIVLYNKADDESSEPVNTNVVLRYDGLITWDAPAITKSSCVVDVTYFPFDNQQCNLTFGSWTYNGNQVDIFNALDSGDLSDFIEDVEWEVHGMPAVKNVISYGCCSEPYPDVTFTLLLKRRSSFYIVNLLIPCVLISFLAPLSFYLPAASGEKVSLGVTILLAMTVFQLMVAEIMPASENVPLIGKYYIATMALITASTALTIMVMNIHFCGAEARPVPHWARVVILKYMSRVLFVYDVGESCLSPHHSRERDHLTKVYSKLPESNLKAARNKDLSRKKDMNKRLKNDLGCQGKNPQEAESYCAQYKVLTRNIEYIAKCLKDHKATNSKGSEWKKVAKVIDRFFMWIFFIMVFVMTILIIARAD
T1 sequence (Q9GZZ6 25-450): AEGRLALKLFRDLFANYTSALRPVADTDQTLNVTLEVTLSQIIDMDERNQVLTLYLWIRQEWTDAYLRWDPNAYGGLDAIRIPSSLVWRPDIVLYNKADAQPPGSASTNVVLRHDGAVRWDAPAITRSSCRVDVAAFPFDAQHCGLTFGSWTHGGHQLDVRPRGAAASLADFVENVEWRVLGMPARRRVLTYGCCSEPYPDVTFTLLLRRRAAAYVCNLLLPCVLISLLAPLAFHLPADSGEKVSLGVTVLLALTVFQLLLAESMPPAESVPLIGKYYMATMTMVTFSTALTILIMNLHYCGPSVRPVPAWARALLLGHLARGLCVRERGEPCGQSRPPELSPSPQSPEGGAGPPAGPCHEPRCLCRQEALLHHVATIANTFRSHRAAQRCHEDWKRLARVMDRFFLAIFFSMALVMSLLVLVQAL
Another assay concerns the target a9 nAChR (Homo sapiens, UniProt Q9UGM1). The description is as above. The class given is cell-based.
Assay [2] concerns the target T1, a9a10 nAChR. The assay is described as above. The class given is cell-based. The source holds these as a separate data set.
Another assay deals with a7 nAChR (Homo sapiens, UniProt P36544). The assay is described as follows: cell-based.
Sequence of a7 nAChR (P36544 23-502): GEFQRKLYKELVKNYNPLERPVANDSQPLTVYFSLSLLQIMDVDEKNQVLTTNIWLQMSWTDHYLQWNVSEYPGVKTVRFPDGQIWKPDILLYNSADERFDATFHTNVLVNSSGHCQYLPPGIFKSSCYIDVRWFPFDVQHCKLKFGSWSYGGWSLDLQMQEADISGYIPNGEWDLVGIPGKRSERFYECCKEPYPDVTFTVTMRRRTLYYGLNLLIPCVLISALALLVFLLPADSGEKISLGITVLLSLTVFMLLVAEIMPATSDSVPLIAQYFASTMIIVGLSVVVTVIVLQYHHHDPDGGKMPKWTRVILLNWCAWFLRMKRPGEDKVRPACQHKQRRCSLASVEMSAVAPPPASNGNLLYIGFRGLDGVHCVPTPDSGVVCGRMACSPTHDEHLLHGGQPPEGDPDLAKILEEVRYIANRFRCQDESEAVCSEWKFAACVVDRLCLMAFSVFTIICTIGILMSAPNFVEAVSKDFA

Sequence of a9 nAChR (Q9UGM1 23-479): as the sequence (Q9UGM1 23-479) above

The compound `CN1CCC[C@H]1c1cccnc1` [nicotine] had an IC50 on a9a10 nAChR [1] of 437000 ± 73000 nM.
Consider `CCN1C[C@]2(COC(=O)c3ccccc3N3C(=O)C[C@H](C)C3=O)CC[C@H](OC)[C@@]34[C@@H]5C[C@H]6[C@H](OC)[C@@H]5[C@](O)(C[C@@H]6OC)[C@@](O)([C@@H](OC)[C@H]23)[C@@H]14` [methyllycaconitine], for which the figures for the IC50 on a9 nAChR, at a9a10 nAChR [2] and at a7 nAChR were 190 ± 20 nM, 240 ± 130 nM and 120 ± 50 nM, respectively.
`CC[N+]1(CC)CCN(c2cccc(C#N)c2)CC1` [mCN-diEPP, 4-(3-cyanophenyl)-1,1-diethylpiperazin-1-ium]: at a9a10 nAChR [1], inhibition was half-maximal at 17100 ± 1540 nM (IC50).
